Test system: PC3 tumor-bearing mice
Experiment: Ex vivo biodistribution of 177Lu-labeled radiotracers in PC3 xenografts
Settings: for Biodistribution Blood / Biodistribution Bone / Biodistribution Heart / Biodistribution Intestine / Biodistribution Kidney / Biodistribution Liver / Biodistribution Lung / Biodistribution Muscle / Biodistribution PC3-Tumor / Biodistribution Pancreas / Biodistribution Spleen / Biodistribution Stomach / Tumor/Blood ratio / Tumor/Liver ratio / Tumor/Muscle ratio / Tumor/Pancreas ratio: PC3 xenografts
Experimental: U87MG and PC3 tumor-bearing mice: Female athymic BALB/c (6 weeks/16–20 g) and male athymic BALB/c nude mice (6 weeks/20–25 g) were implanted with U87MG or PC3 cells (5 × 10^6/100 µL PBS) into their right shoulder, respectively. The animals were used for biodistribution and PET/SPECT/CT imaging studies (Animal License No: BE98/2021).
Ten pmol (0.06–0.08 MBq) of the radiotracers in 100 µL of NaCl 0.9% were injected intravenously into the tail vein of PC3 tumor-bearing mice. Biodistribution studies were conducted at 1, 4, 24, and 48 h after the injection of [^177Lu]Lu-DOTA.SA.FAPi and at 4, 24, 48, 72, and 96 h after the injection of [^177Lu]Lu-DOTAGA.(SA.FAPi)2 (Supplemental Data). […]
was counted in a γ-counter. Biodistribution data are given as the percent of injected activity per gram of tissue (% IA/g) and as means ± SD (n = 4). […]
[177Lu]Lu-DOTA.SA.FAPi and [177Lu]Lu-DOTAGA.(SA.FAPi)2
Ten pmol (0.06-0.08 MBq) of [177Lu]Lu-monomer and [177Lu]Lu-dimer in 100 µL of NaCl 0.9% were injected intravenously into the tail vein of PC3 tumor-bearing mice. The PC3 tumor-bearing mice were used between the 15th and 17th day after the xenograft implantation and its size was 281 ± 75 mm3. Animals were terminally anesthetized by intraperitoneal injection of an overdose of pentobarbital natrium (150 mg/kg; Streuli Pharma SA, Uznach, Switzerland) 1, 4, 24 and 48 h after the injection of [177Lu]Lu-DOTA.SA.FAPi and at 4, 24, 48, 72 and 96 h after the injection of [177Lu]Lu-DOTAGA.(SA.FAPi)2. The organs of interest were dissected and weighed, and the radioactivity in the tissue samples was counted in a γ-counter. The biodistribution data are given as the percent of injected activity per gram of tissue (% IA/g) and as means ± SD (n = 4). […]
0.25mm. The reconstructed data were corrected for Lutetium-177 decay, normalized, and filtered using a Gaussian 3D algorithm with a 2 mm isotropic kernel and generated using PMOD software. […]
The color scale of […]
the SPECT images was set as 0 to 13% IA/mL allowing for qualitative comparisons among the images.

N#C[C@@H]1CC(F)(F)CN1C(=O)CNC(=O)c1ccnc2ccc(OCCCCNc3c(NCCNC(=O)CN4CCN(CC(=O)[O-])CCN(CC(=O)[O-])CCN(CC(=O)[O-])CC4)c(=O)c3=O)cc12.[177Lu+3] [[^177Lu]Lu-DOTA.SA.FAPi]
PC3 tumor uptake (PC3 tumor-bearing mice, 4 h p.i.): 8.9 ± 0.2 %I.A./g
Biodistribution Blood (1 h): 9.1 ± 1.8 % IA/g
Biodistribution Bone (1 h): 4.0 ± 0.5 % IA/g
Biodistribution Heart (1 h): 3.1 ± 0.7 % IA/g
Biodistribution Intestine (1 h): 3.2 ± 0.4 % IA/g
Biodistribution Kidney (1 h): 4.3 ± 0.5 % IA/g
Biodistribution Liver (1 h): 3.8 ± 0.2 % IA/g
Biodistribution Lung (1 h): 4.3 ± 0.6 % IA/g
Biodistribution Muscle (1 h): 3.7 ± 1.0 % IA/g
Biodistribution PC3-Tumor (1 h): 9.6 ± 0.9 % IA/g
Biodistribution Pancreas (1 h): 12 ± 1.1 % IA/g
Biodistribution Spleen (1 h): 3.0 ± 0.1 % IA/g
Biodistribution Stomach (1 h): 2.5 ± 0.3 % IA/g
Tumor/Blood ratio (1 h): 1.1
Tumor/Liver ratio (1 h): 2.2 ± 0.2
Tumor/Muscle ratio (1 h): 2.8 ± 1.0
Tumor/Pancreas ratio (1 h): 0.8 ± 0.1
Biodistribution Blood (4 h): 3.1 ± 0.2 % IA/g
Biodistribution Bone (4 h): 4.2 ± 0.6 % IA/g
Biodistribution Heart (4 h): 1.5 ± 0.3 % IA/g
Biodistribution Intestine (4 h): 1.8 ± 0.3 % IA/g
Biodistribution Kidney (4 h): 2.6 ± 0.03 % IA/g
Biodistribution Liver (4 h): 3.0 ± 0.1 % IA/g
Biodistribution Lung (4 h): 1.7 ± 0.07 % IA/g
Biodistribution Muscle (4 h): 2.3 ± 0.1 % IA/g
Biodistribution PC3-Tumor (4 h): 8.9 ± 0.2 % IA/g
Biodistribution Pancreas (4 h): 5.3 ± 0.4 % IA/g
Biodistribution Spleen (4 h): 1.7 ± 0.1 % IA/g
Biodistribution Stomach (4 h): 1.7 ± 0.5 % IA/g
Tumor/Blood ratio (4 h): 2.9 ± 0.2
Tumor/Liver ratio (4 h): 3.0 ± 0.1
Tumor/Muscle ratio (4 h): 3.9 ± 0.1
Tumor/Pancreas ratio (4 h): 1.7 ± 0.2
Biodistribution Blood (24 h): 0.2 ± 0.09 % IA/g
Biodistribution Bone (24 h): 0.7 ± 0.2 % IA/g
Biodistribution Heart (24 h): 0.1 ± 0.04 % IA/g
Biodistribution Intestine (24 h): 0.2 ± 0.02 % IA/g
Biodistribution Kidney (24 h): 0.6 ± 0.06 % IA/g
Biodistribution Liver (24 h): 1.9 ± 0.3 % IA/g
Biodistribution Lung (24 h): 0.2 ± 0.03 % IA/g
Biodistribution Muscle (24 h): 0.3 ± 0.04 % IA/g
Biodistribution PC3-Tumor (24 h): 1.8 ± 0.1 % IA/g
Biodistribution Pancreas (24 h): 0.3 ± 0.1 % IA/g
Biodistribution Spleen (24 h): 0.2 ± 0.03 % IA/g
Biodistribution Stomach (24 h): 0.1 ± 0.02 % IA/g
Biodistribution Blood (48 h): 0.01 ± 0.0 % IA/g
Biodistribution Bone (48 h): 0.1 ± 0.01 % IA/g
Biodistribution Heart (48 h): 0.03 ± 0.02 % IA/g
Biodistribution Intestine (48 h): 0.04 ± 0.0 % IA/g
Biodistribution Kidney (48 h): 0.12 ± 0.07 % IA/g
Biodistribution Liver (48 h): 1.1 ± 0.1 % IA/g
Biodistribution Lung (48 h): 0.05 ± 0.04 % IA/g
Biodistribution Muscle (48 h): 0.05 ± 0.07 % IA/g
Biodistribution PC3-Tumor (48 h): 1.0 ± 0.1 % IA/g
Biodistribution Pancreas (48 h): 0.06 ± 0.01 % IA/g
Biodistribution Spleen (48 h): 0.1 ± 0.06 % IA/g
Biodistribution Stomach (48 h): 0.05 ± 0.02 % IA/g

Reference: PMC11243320, “Tailoring Fibroblast-Activation Protein Targeting for Theranostics: A Comparative Preclinical Evaluation of the ^68Ga- and ^177Lu-Labeled Monomeric and Dimeric Fibroblast-Activation Protein Inhibitors DOTA.SA.FAPi and DOTAGA.(SA.FAPi)2” (Molecules, 2024)
